Data taken from article PMC4037345 (ChemMedChem, 2014).

Tests used:
OVCA429 = assay: Resazurin-based viability assay, 48 hr treatment, OVCA429; format: cell-based, human; conditions: read-out: OVCA429 IC50
SKOV3 = assay: Resazurin-based viability assay, 48 hr treatment, SKOV3; format: cell-based, human; conditions: read-out: SKOV3 IC50
[1] = parent drugs; cited from earlier work
Albumin = Albumin (Homo sapiens, UniProt P02768); conditions: parent drugs; cited from earlier work
[2] = cited from earlier work

Chain of Albumin (P02768 25-609, species assumed): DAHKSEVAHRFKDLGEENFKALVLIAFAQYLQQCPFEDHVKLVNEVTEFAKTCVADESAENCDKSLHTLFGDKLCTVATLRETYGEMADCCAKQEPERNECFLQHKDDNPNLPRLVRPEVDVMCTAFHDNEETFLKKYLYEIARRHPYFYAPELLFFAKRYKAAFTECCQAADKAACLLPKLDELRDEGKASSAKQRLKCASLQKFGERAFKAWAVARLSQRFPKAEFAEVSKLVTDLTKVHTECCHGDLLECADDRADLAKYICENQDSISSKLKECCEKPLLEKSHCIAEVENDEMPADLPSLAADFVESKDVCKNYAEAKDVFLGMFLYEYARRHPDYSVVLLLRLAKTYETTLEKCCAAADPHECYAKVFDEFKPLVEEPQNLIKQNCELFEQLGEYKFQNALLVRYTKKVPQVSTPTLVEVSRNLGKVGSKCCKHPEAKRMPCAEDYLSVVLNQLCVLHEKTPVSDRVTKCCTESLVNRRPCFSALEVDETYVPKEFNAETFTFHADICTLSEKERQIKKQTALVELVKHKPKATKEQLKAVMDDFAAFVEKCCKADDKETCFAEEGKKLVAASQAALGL

| SMILES | IC50 (OVCA429) [µM] | IC50 (SKOV3) [µM] | logP [1] | % Albumin Binding (Albumin) | t1/2 initial (initial plasma half-life) [2] |
| --- | --- | --- | --- | --- | --- |
| N.N.O=C([O-])C1(C(=O)[O-])CCC1.[Pt+2] [Carboplatin, carboplatin] | 210 ± 6 | 100 ± 6 | -2.3[30] | 40[29] % | 5[32-33] min |
| N.N.[Cl][Pt][Cl] [Cisplatin, cisplatin] | 15 ± 1 | 3 ± 0.3 |  |  |  |
